Measured values from patent US20250000829A1, “PHENYLBUTYRATE COMPOSITIONS FOR TREATING DEVELOPMENTAL AND EPILEPTIC ENCEPHALOPATHY (“DEE”), AND STXBP1 DISORDERS” (priority 2023, published 2025).
Where “and” joins values, the source holds several entries; their conditions need not be identical. Equal entries are not always repeated. Where two headings read alike, the source gives them in different places.

What was measured:
[1] = based on Lexicomp; cited from earlier work
[2] = system: children with STXBP1-E and SLC6A1-NDD; test: Open-label pilot study: sleep assessed with the Child's Sleep Habits Questionnaire (CSHQ); format: in vivo, human; settings: assessed at 10 weeks of drug exposure
Method: (§1) After institutional review board approval, 20 participants were enrolled in a single treatment group, multiple-dose, open-label, pilot study to evaluate the safety, tolerability, pharmacokinetics (PK) and pharmacodynamics (PD) of glycerol phenylbutyrate in children with STXBP1-E and SLC6A1-NDD.
Visit 5 was a pre-treatment baseline visit conducted at least 28 days after visit 1 and the day before treatment initiation. This visit was conducted in person while the patient was admitted to hospital. During this visit, the investigator reviewed the participant's seizure diary and medical history. […]
(§2) Visit 14 was a treatment evaluation visit and was conducted in person at least 40 days after the first day of medication administration. […] The participant was evaluated by a developmental pediatrician, neuropsychologist, or psychologist, in the same fashion as during visit 5.
Response to the medication was measured qualitatively and quantitatively using the following measures. […] Additional measures comparing visit 5 and visit 14 included quality of life assessment, as quantified by the change in PEDSQL epilepsy module score, and by the trajectory and overall change in the PELHS QOL-2 score; qualitative analysis of the participant's development and behavior; change in developmental assessment scores; ataxia as measured by changes in SARA scale score; and sleep as measured by CSHQ score. […]

[3] = mice; via the monocarboxylate transporter 1 mechanism; cited from earlier work
[4] = system: children with STXBP1-E and SLC6A1-NDD; test: Open-label pilot study of glycerol phenylbutyrate: seizure response (seizure diary); format: in vivo, human; settings: of 20 participants
Description: as §1
Participants in the study were patients aged 2 months to 17 years with STXBP1-E and seizures or with SLC6A1-NDD. People with SLC6A1 typically experience seizures later in life (typically middle of 1st decade) and so seizures were not an entry criterion for participants with SLC6A1. During enrollment preference was given to patients between 2 months and 3 years old (target of 5 patients) and patients between 4 and 10 years old (target 5 patients). This is because younger patients up to 3 years old may be more sensitive to possible pharmacodynamics and efficacy endpoints and, to a lesser extent, the same may be true for patients 4 to 10 years, as compared to older patients. The study enrolled 11 patients, including 4 children between 2 months and 2 years.
A daily dose of 11.2 mL/m^2, equivalent to 12.4 g/m^2, was given, enterally (by mouth or, if necessary, by nasogastric or gastrostomy tube). The daily dose was divided into three equally divided doses, with each dose given with food.
FIG. 3 is a schedule of assessments for measuring the effectiveness of glycerol phenylbutyrate to treat patients with STXBP1-E and SLC6A1-NDD. […]
Response to the medication was measured qualitatively and quantitatively using the following measures. Quantitative and qualitative measures included the change in the number of and percent change in the seizures per week, as recorded in the seizure diary, comparing weeks 1-4 with weeks 5-10; change and percent change in number of seizures per hour, as recorded by video EEG, comparing visit 5 (day before medication) to visit 6 (first day of medication), and comparing visit 5 to visit 14 (40 days after the first day of medication); and changes in […] in EEG data, comparing visit 5 to visit 6 and visit 5 to visit 14. Additional measures comparing visit 5 and visit 14 included quality of life assessment, as quantified by the change in PEDSQL epilepsy module score, and by the trajectory and overall change in the PELHS QOL-2 score; qualitative analysis of the participant's development and behavior; change in developmental assessment scores; ataxia as measured by changes in SARA scale score; and sleep as measured by CSHQ score. Medication dosing adherence was also assessed, quantified as the percentage of days in which the participant received the full prescribed dose, and considering obstacles to adherence qualitatively as reported by caregivers. […]

[5] = system: children with STXBP1-E and SLC6A1-NDD; test: Open-label pilot study: communication assessed with the ORCA; format: in vivo, human; settings: assessed at 10 weeks of drug exposure
Method: as §1
Development was assessed using several pre-specified measures (Vineland, ORCA) as well as an assessment by a pediatric development expert (i.e. a physician, neuropsychologist, or psychologist with expertise in administering and interpreting developmental assessments). During the assessment, several additional validated measures may have been used. These may have included (but were not limited to) the Bayley Scales of Infant and Toddler Development, the Childhood Autism Rating Scale, the Child Behavior Checklist, the Behavior Rating Inventory of Executive Function, the Infant Toddler Social Emotional Assessment, the DAYC (Developmental Assessment of Young Children), or other similar validated scales. […]
as §2
(§3) Response to the medication was measured qualitatively and quantitatively using the following measures. […]

[6] = Blood/plasma and CSF levels of phenylbutyrate after glycerol phenylbutyrate dosing; format: in vivo, human; settings: doses of 12 g/m^2/day, extrapolated from 3 g/m^2/day
Method: Dosing was sufficient to lead to therapeutic concentrations in the range of 0.25 mM to 1 mM in serum and CSF, based on the following observations. […] CSF levels are approximately ½ to ¼ of serum levels, based on data from non-human primates, thus CSF levels of 0.25 to 0.5 mM were assumed.
The secondary endpoints were measuring plasma concentration of phenylbutyrate and active metabolites. Plasma levels of phenylbutyrate peaked at 2 hours after an oral dose. Thus investigators aimed to obtain levels within 90-150 minutes after the oral dose.

[7] = cited from earlier work
[8] = non-human primates; via the monocarboxylate transporter 1 mechanism; cited from earlier work
[9] = system: children with STXBP1-E and SLC6A1-NDD; test: Open-label pilot study: quality of life assessed with the PEDSQL epilepsy module; format: in vivo, human; settings: assessed at 10 weeks of drug exposure
Method: as §1
Quality of life was assessed using the Pediatric Quality of Life Inventory (PEDSQL) epilepsy module, which is a validated scale about quality of life for children with epilepsy, and the Pediatric Epilepsy Learning Healthcare System Quality of Life survey (PELHS QOL 2), which is a set of two questions that ask how seizures and medication side effects alter usual routines. The PEDSQL is provided at eprovide.mapi-trust.org/instruments/pediatric-quality-of-life-inventory-epilepsy-module.
Visit 5 was a pre-treatment baseline visit conducted at least 28 days after visit 1 and the day before treatment initiation. This visit was conducted in person while the patient was admitted to hospital. […]
as §2, §3

[10] = system: child with SLC6A1; test: Open-label pilot study: EEG before and after treatment; format: in vivo, human; settings: 10 second EEG, same child with SLC6A1, six weeks after treatment vs prior to treatment (brief absence seizure)
Method: Investigators noted EEG changes, including standard clinical interpretation of the EEG and video (particularly for abnormal movements).
Visit 5 was a pre-treatment baseline visit conducted at least 28 days after visit 1 and the day before treatment initiation. This visit was conducted in person while the patient was admitted to hospital. During this visit, the investigator reviewed the participant's seizure diary and medical history. The investigator administered several assessments, including the PEDSQL Epilepsy Module, the PELHS QOL 2, the SARA Scale, the CARS, the CSHQ, and the ORCA. The participant was given a physical exam and had urine and blood samples collected for a series of laboratory tests. Laboratory tests included routine laboratory tests and specialized laboratory tests. Routine laboratory tests that were conducted included a complete blood count (CBC), chemistry panels, liver function tests (LFTs), urinalysis, amylase test, lipase test, anti-seizure medication (ASM) levels test, and electrocardiogram (EKG). […]
Visit 14 was a treatment evaluation visit and was conducted in person at least 40 days after the first day of medication administration. […] The participant was evaluated by a developmental pediatrician, neuropsychologist, or psychologist, in the same fashion as during visit 5. […]

[11] = daily dose 11.2 mL/m^2 enterally

With O=C(CCCc1ccccc1)OCC(COC(=O)CCCc1ccccc1)OC(=O)CCCc1ccccc1 [glycerol phenylbutyrate] as the compound, how does the “Side effect frequency: abdominal pain” value [1] read?
The value was 7%.

What about the “Side effect frequency: decreased appetite” value [1] of the same compound?
Its value is 7%.

And the “Side effect frequency: diarrhea” value [1]?
Its value is 16%.

What about the “Side effect frequency: dyspepsia” value [1] of the same compound?
The value was 5%.

And the “Side effect frequency: fatigue” value [1]?
The value was 7%.

And the “Side effect frequency: flatulence” value [1]?
Its value is 14%.

And the “Side effect frequency: headache” value [1]?
Its value is 14%.

What about the “Side effect frequency: nausea” value [1] of the same compound?
The value was 2%.

And the “Side effect frequency: vomiting” value [1]?
The value was 7%.

What about the “Participants with improved sleep, as assessed with the CSHQ” value [2] of the same compound?
Its value is 5 of 12.

And the “Crossing of the blood-brain barrier” value [3]?
Its value is “crosses the blood-brain barrier”.

And the “Responders (50% or more reduction in seizures clinically associated with the use of glycerol phenylbutyrate)” value ([4]; daily dose 11.2 mL/m^2 (12.4 g/m^2) enterally in three divided doses)?
The value was 11 participants.

And the “Indeterminant response (improvement, but less than 50% reduction in seizures or not clinically associated with use)” value [4, 11]?
The value was 3 participants.

What about the Non-responders [4, 11] of the same compound?
The Non-responders was 2 participants.

And the “Participants that had no seizures” value [4, 11]?
Its value is 4 participants.

And the “Participants with improved communication, as assessed with the ORCA” value [5]?
Its value is 8 of 11.

And the Concentration in serum [6]?
Its Concentration in serum is roughly 1 mM.

What about the “Blood levels of phenylbutyric acid” value ([7]; doses of 3 g/m^2/day of glycerol phenylbutyrate, adults) of the same compound?
The value was 38 μg/mL and 0.23 mM.

What about the “Crossing of the blood-brain barrier” value [8] of the same compound?
Its value is “crosses the blood-brain barrier”.

And the “Participants with improved quality of life, as assessed with the PEDSQL” value [9]?
The value was 4 of 11.

And the “Seizure activity in EEG after treatment” value [10]?
Its value is “did not show seizure activity”.

Which “Time of peak plasma levels of phenylbutyrate” value ([7]; after an oral dose) does the source give for phenylbutyric acid [phenylbutyrate] here?
Its value is 2 h.
